Source: ChEMBL document CHEMBL3297697, “Property- and structure-guided discovery of a tetrahydroindazole series of interleukin-2 inducible T-cell kinase inhibitors” (J Med Chem, 2014)
≈ marks a conversion by molar mass, not a printed value.

How the values were obtained:
[1] = Plasma protein binding in human; format: ADME, cell-free; conditions: read-out: PPB (converted)
[2] = Cmax in BALB/c mouse at 50 mg/kg, po by LC-MS/MS analysis; format: ADME, organism-based; set-up: dose 50 mg/kg, route oral; conditions: in vivo
[3] = AUC in BALB/c mouse at 1 mg/kg, iv by LC-MS/MS analysis; format: ADME, organism-based; set-up: dose 1 mg/kg, route intravenous; conditions: plasma
[4] = AUC in BALB/c mouse at 50 mg/kg, po by LC-MS/MS analysis; format: ADME, organism-based; set-up: dose 50 mg/kg, route oral; conditions: plasma
[5] = Clearance in BALB/c mouse at 1 mg/kg, iv by LC-MS/MS analysis; format: ADME, organism-based; set-up: dose 1 mg/kg, route intravenous; conditions: in vivo
[6] = Half life in BALB/c mouse at 1 mg/kg, iv by LC-MS/MS analysis; format: ADME, organism-based; set-up: dose 1 mg/kg, route intravenous; conditions: in vivo
[7] = Volume of distribution at steady state in BALB/c mouse at 1 mg/kg, iv by LC-MS/MS analysis; format: ADME, organism-based; set-up: dose 1 mg/kg, route intravenous; conditions: in vivo, read-out: Vdss
[8] = Oral bioavailability in BALB/c mouse at 50 mg/kg by LC-MS/MS analysis; format: ADME, organism-based; conditions: in vivo
[9] = Cmax in Sprague-Dawley rat at 5 mg/kg, po by LC-MS/MS analysis; format: ADME, organism-based; set-up: dose 5 mg/kg, route oral; conditions: in vivo
[10] = AUC in Sprague-Dawley rat at 1 mg/kg, iv by LC-MS/MS analysis; format: ADME, organism-based; set-up: dose 1 mg/kg, route intravenous; conditions: plasma
[11] = AUC in Sprague-Dawley rat at 5 mg/kg, po by LC-MS/MS analysis; format: ADME, organism-based; set-up: dose 5 mg/kg, route oral; conditions: plasma
[12] = Clearance in Sprague-Dawley rat at 1 mg/kg, iv by LC-MS/MS analysis; format: ADME, organism-based; set-up: dose 1 mg/kg, route intravenous; conditions: in vivo
[13] = Half life in Sprague-Dawley rat at 1 mg/kg, iv by LC-MS/MS analysis; format: ADME, organism-based; set-up: dose 1 mg/kg, route intravenous; conditions: in vivo
[14] = Volume of distribution at steady state in Sprague-Dawley rat at 1 mg/kg, iv by LC-MS/MS analysis; format: ADME, organism-based; set-up: dose 1 mg/kg, route intravenous; conditions: in vivo, read-out: Vdss
[15] = Oral bioavailability in Sprague-Dawley rat at 5 mg/kg by LC-MS/MS analysis; format: ADME, organism-based; conditions: in vivo
[16] = Cmax in beagle dog at 5 mg/kg, po by LC-MS/MS analysis; format: ADME, organism-based, Canis lupus familiaris; set-up: dose 5 mg/kg, route oral; conditions: in vivo
[17] = AUC in beagle dog at 1 mg/kg, iv by LC-MS/MS analysis; format: ADME, organism-based, Canis lupus familiaris; set-up: dose 1 mg/kg, route intravenous; conditions: plasma
[18] = AUC in beagle dog at 5 mg/kg, po by LC-MS/MS analysis; format: ADME, organism-based, Canis lupus familiaris; set-up: dose 5 mg/kg, route oral; conditions: plasma
[19] = Clearance in beagle dog at 1 mg/kg, iv by LC-MS/MS analysis; format: ADME, organism-based, Canis lupus familiaris; set-up: dose 1 mg/kg, route intravenous; conditions: in vivo
[20] = Half life in beagle dog at 1 mg/kg, iv by LC-MS/MS analysis; format: ADME, organism-based, Canis lupus familiaris; set-up: dose 1 mg/kg, route intravenous; conditions: in vivo
[21] = Volume of distribution at steady state in beagle dog at 1 mg/kg, iv by LC-MS/MS analysis; format: ADME, organism-based, Canis lupus familiaris; set-up: dose 1 mg/kg, route intravenous; conditions: in vivo
[22] = Oral bioavailability in beagle dog at 5 mg/kg by LC-MS/MS analysis; format: ADME, organism-based, Canis lupus familiaris; conditions: in vivo
[23] = Apparent permeability across MDCK cells; format: ADME, cell-based, Canis lupus familiaris; conditions: dog
[24] = target: Dual specificity protein kinase CLK2 (Homo sapiens) (UniProt P49760); assay: Inhibition of CLK2 (unknown origin) at 0.1 uM
Sequence of Dual specificity protein kinase CLK2 (Homo sapiens) (P49760 whole entry, looked up): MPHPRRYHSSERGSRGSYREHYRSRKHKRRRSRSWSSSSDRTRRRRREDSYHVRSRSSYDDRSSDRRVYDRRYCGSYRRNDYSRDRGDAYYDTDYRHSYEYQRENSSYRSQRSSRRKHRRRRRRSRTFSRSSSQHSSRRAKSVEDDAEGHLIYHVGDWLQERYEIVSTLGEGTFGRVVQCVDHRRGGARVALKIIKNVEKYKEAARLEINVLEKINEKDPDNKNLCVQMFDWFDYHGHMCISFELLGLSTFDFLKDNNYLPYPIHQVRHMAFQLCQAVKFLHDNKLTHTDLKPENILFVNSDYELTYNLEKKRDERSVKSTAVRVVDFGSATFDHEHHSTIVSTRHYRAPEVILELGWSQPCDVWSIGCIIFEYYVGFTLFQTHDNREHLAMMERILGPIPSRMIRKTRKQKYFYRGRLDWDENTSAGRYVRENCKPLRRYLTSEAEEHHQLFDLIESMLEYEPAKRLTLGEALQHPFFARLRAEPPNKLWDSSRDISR

[25] = target: Receptor-type tyrosine-protein kinase FLT3 (Homo sapiens) (UniProt P36888); assay: Inhibition of FLT3 (unknown origin) at 0.1 uM
[26] = tested on: T1, Receptor-type tyrosine-protein kinase FLT3 (Homo sapiens), P36888 [D835Y]; assay: Inhibition of FLT3 D835Y mutant (unknown origin) at 0.1 uM
T1 sequence (whole entry): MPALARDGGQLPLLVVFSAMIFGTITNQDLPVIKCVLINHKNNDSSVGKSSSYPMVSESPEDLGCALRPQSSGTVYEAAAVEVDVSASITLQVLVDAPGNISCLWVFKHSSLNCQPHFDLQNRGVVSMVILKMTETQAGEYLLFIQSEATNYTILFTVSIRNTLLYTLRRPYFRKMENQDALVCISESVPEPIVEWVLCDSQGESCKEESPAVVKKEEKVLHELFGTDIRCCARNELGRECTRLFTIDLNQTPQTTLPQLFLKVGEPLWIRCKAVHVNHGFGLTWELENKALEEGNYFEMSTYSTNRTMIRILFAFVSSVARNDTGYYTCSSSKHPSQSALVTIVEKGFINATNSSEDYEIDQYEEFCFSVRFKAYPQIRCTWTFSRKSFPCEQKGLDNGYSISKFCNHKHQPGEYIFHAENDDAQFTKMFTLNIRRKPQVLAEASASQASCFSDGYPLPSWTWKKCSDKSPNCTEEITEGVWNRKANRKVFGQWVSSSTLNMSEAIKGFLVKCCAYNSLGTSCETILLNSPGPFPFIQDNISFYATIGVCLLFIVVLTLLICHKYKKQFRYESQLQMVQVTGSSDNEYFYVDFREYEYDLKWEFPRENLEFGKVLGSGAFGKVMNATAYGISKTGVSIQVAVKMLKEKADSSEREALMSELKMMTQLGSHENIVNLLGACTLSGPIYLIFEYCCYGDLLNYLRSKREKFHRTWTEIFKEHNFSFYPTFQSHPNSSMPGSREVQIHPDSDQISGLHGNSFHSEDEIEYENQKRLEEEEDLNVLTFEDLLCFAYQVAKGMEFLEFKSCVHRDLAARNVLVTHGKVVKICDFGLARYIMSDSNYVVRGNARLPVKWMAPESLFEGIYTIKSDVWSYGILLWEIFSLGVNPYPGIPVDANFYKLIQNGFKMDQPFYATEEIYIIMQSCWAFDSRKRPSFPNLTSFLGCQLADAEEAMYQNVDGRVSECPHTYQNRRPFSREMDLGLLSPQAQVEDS

[27] = target: High affinity nerve growth factor receptor (Homo sapiens) (UniProt P04629); assay: Inhibition of TRKA (unknown origin) at 0.1 uM
Sequence of High affinity nerve growth factor receptor (Homo sapiens) (P04629 33-796 limits assumed): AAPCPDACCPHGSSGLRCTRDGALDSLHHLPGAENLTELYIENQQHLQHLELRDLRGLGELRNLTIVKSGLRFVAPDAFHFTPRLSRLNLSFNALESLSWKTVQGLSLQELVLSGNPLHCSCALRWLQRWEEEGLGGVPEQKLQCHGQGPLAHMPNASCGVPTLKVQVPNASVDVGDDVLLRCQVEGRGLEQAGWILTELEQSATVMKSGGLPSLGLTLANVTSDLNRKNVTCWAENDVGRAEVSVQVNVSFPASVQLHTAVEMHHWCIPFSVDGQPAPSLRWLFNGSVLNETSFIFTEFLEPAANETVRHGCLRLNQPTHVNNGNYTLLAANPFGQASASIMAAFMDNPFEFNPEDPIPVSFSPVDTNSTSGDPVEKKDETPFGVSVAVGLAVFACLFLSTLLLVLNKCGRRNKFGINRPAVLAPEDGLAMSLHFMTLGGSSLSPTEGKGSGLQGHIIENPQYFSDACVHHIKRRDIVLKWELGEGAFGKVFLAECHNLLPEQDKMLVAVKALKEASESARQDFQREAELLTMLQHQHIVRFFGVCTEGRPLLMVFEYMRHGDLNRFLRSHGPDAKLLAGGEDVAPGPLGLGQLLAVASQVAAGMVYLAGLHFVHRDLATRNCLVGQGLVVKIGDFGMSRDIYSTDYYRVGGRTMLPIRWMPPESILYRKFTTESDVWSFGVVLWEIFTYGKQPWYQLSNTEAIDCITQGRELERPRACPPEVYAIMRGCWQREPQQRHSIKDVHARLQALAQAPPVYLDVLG

[28] = target: BDNF/NT-3 growth factors receptor (Homo sapiens) (UniProt Q16620); assay: Inhibition of TRKB (unknown origin) at 0.1 uM
Sequence of BDNF/NT-3 growth factors receptor (Homo sapiens) (Q16620 32-822 limits assumed): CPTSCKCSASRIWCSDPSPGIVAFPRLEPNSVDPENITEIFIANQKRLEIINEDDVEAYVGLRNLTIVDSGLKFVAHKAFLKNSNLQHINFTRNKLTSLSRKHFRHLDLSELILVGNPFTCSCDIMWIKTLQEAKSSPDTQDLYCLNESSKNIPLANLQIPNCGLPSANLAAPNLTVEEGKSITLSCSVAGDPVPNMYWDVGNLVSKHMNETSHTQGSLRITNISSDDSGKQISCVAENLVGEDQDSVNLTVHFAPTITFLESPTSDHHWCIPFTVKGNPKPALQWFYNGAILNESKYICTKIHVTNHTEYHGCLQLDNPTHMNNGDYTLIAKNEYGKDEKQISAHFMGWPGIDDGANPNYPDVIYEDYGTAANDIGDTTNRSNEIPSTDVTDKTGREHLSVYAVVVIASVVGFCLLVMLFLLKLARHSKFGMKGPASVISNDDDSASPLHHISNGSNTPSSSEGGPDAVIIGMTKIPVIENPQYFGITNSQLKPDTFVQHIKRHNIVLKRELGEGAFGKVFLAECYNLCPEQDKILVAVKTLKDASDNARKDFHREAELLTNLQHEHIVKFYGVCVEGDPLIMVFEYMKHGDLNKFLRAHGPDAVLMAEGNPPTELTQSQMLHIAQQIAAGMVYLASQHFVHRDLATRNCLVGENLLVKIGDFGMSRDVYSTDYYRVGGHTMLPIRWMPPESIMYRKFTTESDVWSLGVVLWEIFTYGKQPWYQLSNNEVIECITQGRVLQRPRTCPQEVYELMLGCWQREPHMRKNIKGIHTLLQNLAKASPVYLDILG

[29] = target: NT-3 growth factor receptor (Homo sapiens) (UniProt Q16288); assay: Inhibition of TRKC (unknown origin) at 0.1 uM
Sequence of NT-3 growth factor receptor (Homo sapiens) (Q16288 32-839 limits assumed): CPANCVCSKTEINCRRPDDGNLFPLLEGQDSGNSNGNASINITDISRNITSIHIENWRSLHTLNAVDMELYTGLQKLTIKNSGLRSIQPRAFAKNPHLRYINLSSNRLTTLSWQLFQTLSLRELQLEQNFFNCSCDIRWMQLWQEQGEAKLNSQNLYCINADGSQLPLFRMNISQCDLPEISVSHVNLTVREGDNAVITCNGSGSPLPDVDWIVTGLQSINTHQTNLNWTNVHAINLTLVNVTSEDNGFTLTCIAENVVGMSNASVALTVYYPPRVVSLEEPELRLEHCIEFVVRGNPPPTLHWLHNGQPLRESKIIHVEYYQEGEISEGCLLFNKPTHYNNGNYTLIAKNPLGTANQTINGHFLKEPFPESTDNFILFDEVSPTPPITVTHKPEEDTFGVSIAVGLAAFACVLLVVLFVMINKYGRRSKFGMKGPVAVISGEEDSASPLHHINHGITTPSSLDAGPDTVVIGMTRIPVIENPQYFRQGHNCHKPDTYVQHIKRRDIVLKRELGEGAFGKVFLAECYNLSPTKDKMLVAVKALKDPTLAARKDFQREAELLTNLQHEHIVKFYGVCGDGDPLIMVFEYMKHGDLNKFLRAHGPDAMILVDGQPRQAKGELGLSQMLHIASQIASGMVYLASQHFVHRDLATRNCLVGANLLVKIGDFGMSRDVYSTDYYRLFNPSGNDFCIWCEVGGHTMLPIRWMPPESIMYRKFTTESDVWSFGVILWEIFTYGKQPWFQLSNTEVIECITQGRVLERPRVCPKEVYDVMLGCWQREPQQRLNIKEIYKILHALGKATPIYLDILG

physchem [30] = conditions: PBS buffer, pH 7.4, Kinetic_solubility
physchem [31] = conditions: 1-octanol/phosphate buffer, pH 7.4, logD

fraction unbound [1]: 0.07
Cmax [2]: 3800 nM
AUC [3]: 1.5 µM·h
AUC [4]: 27 µM·h
clearance [5]: 40 mL/min/kg
half-life [6]: 2.9 h
Vd [7]: 10 L/kg
bioavailability [8]: 36%
Cmax [9]: 200 nM
AUC [10]: 0.6 µM·h
AUC [11]: 1.1 µM·h
clearance [12]: 70 mL/min/kg
half-life [13]: 3 h
Vd [14]: 14 L/kg
bioavailability [15]: 40%
Cmax [16]: 900 nM
AUC [17]: 1.9 µM·h
AUC [18]: 10 µM·h
clearance [19]: 21 mL/min/kg
half-life [20]: 5.4 h
Vd [21]: 6.7 L/kg
bioavailability [22]: 100%
Papp [23]: 4.6 ×10⁻⁶ cm/s
inhibition [24]: 93%
inhibition [25]: 76%
inhibition [26]: 75%
inhibition [27]: 80%
inhibition [28]: 91%
inhibition [29]: 88%
solubility kinetic at 24 h, 10000 µM (physchem [30]): 68 µM (≈ 28.6 µg/mL)
logD at 20 min, 10000 µM (physchem [31]): 2
SMILES: CN(C)CC[C@@H](c1ccccc1)n1cc(NC(=O)c2n[nH]c3c2CCC(C)(C)C3)cn1
